Converted amounts (≈) assume the structure as drawn.
Columns and labels:
[1] = tested on: multidrug resistant Pseudomonas aeruginosa MSC06120 strains; assay: Minimum inhibitory concentrations for MSC06120 strains; assay type: cell-based; conditions: read-out: Minimum inhibitory concentration
[2] = tested on: Pseudomonas aeruginosa PA103 strains (ATCC29260); assay: Enhancement of anti-Pseudomonas aeruginosa activity of gentamicin (viable count); assay type: cell-based; conditions: gentamicin 0.125 μg/ml plus PBS (negative control group), 4 hours at 37° C.
Experimental: Pseudomonas aeruginosa PA103 strains (ATCC29260) were shake cultured overnight at 37° C. in a Mueller-Hinton liquid medium and diluted to 1×10^5 cfu/ml with the same medium. Then, the strains were shake cultured again at 37° C. Two hours later, gentamicin was added at a concentration of 0.125 μg/ml. Likewise, to a negative control group, PBS was added at a concentration of 300 μg/ml. To antibody-added groups, rat anti-PA5158L1 IgG as the monoclonal antibody produced by the hybridoma deposited under the accession No. FERM-BP-10672, rat anti-PA5158L2 IgG as the IgG fraction purified from the KLH-conjugated peptide (SEQ ID No: 6)-immunized rat sera, and rat anti-PA5158 IgG as the IgG fraction purified from the PA5158 recombinant protein-immunized rat sera were added at each concentration of 300 μg/ml. Then, shake culture was carried out at 37° C. for 4 hours, and the number of viable strains in each group was measured.

| MIC [1] | Molecule | Number of viable strains [2] |
| --- | --- | --- |
| 64 µg/mL (≈ 109 µM) | NCC[C@H](O)C(=O)N[C@@H]1C[C@H](N)[C@@H](O[C@H]2O[C@H](CN)[C@@H](O)[C@H](O)[C@H]2O)[C@H](O)[C@H]1O[C@H]1O[C@H](CO)[C@@H](O)[C@H](N)[C@H]1O [amikacin] |  |
| 32 µg/mL (≈ 107 µM) | C[C@@H](O)[C@H]1C(=O)N2C(C(=O)O)=C(SCCN=CN)C[C@H]12 [imipenem] |  |
|  | gentamicin | 5.4×10^6 cfu/ml |

| Molecule | MIC [1] | Number of viable strains [2] |
| --- | --- | --- |
| O=C(O)c1cn(C2CC2)c2cc(N3CCNCC3)c(F)cc2c1=O [ciprofloxacin] | > 256 µg/mL |  |
